{"source": "patent US20240199555A1", "about": "“APPLICATIONS OF BIASED LIGANDS OF THE SEROTONIN 5-HT7 RECEPTOR FOR THE TREATMENT OF PAIN, MULTIPLE SCLEROSIS AND THE CONTROL OF THERMOREGULATION” (Centre National de la Recherche Scientifique, priority 2021, published 2024)", "key": {"[1]": {"target": "human 5-HT7a receptor (Homo sapiens (Human), UniProt P34969)", "sequence (P34969 other isoform, or with tags, fused parts or gaps)": "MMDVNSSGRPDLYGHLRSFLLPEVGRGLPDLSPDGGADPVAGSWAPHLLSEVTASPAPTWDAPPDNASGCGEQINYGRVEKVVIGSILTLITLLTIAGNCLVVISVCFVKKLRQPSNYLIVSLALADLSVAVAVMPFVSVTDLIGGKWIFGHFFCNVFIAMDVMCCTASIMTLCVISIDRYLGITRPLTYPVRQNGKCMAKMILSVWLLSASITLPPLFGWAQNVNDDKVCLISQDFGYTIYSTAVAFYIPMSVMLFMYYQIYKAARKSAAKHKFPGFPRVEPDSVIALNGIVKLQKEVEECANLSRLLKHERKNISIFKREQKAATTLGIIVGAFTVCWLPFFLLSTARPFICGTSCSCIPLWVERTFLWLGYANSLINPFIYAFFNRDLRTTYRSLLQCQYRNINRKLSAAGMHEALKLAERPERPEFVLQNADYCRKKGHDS", "assay": "Radioligand binding competition, filtration binding assay, 5-HT7a", "conditions": "affinity on 5-HT7 receptor, table of new compounds", "description": "FIG. 14: Testing of 8 molecules for radioligand binding competition activity on recombinant human 5-HT1A, 5-HT2A, 5-HT2Cedited, 5-HT6, 5-HT7 and D2(long) receptors using filtration binding assays.\nRadioligand Binding experiments were conducted with Epics Therapeutics membrane preparations. Receptor accession numbers, cellular background and reference compounds are shown in this table.\nReference values thus obtained for the test were compared to historical values obtained from the same receptor and used to validate the experimental session. For replicate determinations, the maximum variability tolerated in the test was of +/−20% around the average of the replicates.\nDose-response data from test compounds were analyzed with XLfit (IDBS) software using nonlinear regression applied to a sigmoidal dose-response model and the following equation: • XL Fit fit Model 203: 4 Parameter Logistic Model • A: Bottom • B: TOP • C: LogEC50 • D: Hill"}, "[2]": {"test_system": "mice", "assay": "CFA-induced mechanical hypersensitivity, Von Frey filament test", "format": "in vivo", "conditions": "5 mg/kg, s.c., 30 minutes", "protocol": "Mechanical hypersensitivity was evaluated after CFA intraplantar injection by using the Von Frey test. […] Mechanical hypersensitivity was performed 24 hrs later (pre-treatment) CFA intraplantar injection into the left hind paw (ipsilateral paw). […] The ligand effects (E55888 or Serodolin) were evaluated 30 min and 24 hrs after in the ipsilateral paw. Data are means±SEM of values obtained in 2 independent experiments (n=8 to 10 per group). ****p<0.0001 ***p<0.001 **p<0.01 *p<0.05. Statistical analysis was done using Kruskal Wallis test.\nVon Frey filament test. Before inducing peripheral inflammation, each animal was tested on the left hind paw with Von Frey Filament to determine its basal sensibility level. Then, peripheral inflammation was induced by intraplantar injection of Complete Freund's Adjuvant (CFA-10 μL) (F5881, Sigma) in the left hind paw (ipsilateral paw) and mechanical allodynia was measure (pre-treatment). Mice were divided into two groups, one with E55888 (5 mg/kg) and the other with Serodolin (5 mg/kg) subcutaneous injections in the ipsilateral paw. Both in absence (−) or in presence (+) of the 5-HT7R antagonist SB269960 (5 mg/kg), intraperitoneally, 20 min before the agonist injections (8-10 mice per group).\nThe inventors wanted to evaluate the effect of Serodolin on mechanical hypersensitivity in comparison with E-55888 after CFA injection."}, "[3]": {"assay": "Pharmacokinetic study in plasma and brain", "format": "in vivo, C57BL/6 mice", "conditions": "5 mg/kg, subcutaneous", "description": "FIG. 20: Pharmacokinetic study of E55888 and Serodolin. Concentration-time profile of E55888 (reference agonist) and Serodolin in plasma (A) and brain (B) following subcutaneous injection of a unique dose 5 mg/kg of each compound in C57BL/6 mice. Data represent the mean concentration±SEM of n=4 each time point.\nThe pharmacokinetic study was undertaken to evaluate and compare the quantity of Serodolin and E55888 in plasma and brain samples from C57BL/6 mice (Janvier, Le Genest France) at several time points. Seven weeks old C57BL/6 mice (n=4 animals per group) received by subcutaneous injection a unique dose (5 mg/kg) of Serodolin or E55888 (U103013S, Achemblock). Control group received vehicle (solution of 20% DMSO and 5% Tween 80 diluted in NaCl). […] Blank vehicle mouse brains homogenates and plasma were used to established standard curves of Serodolin or E55888. […] Study samples, brains homogenates and plasma, were prepared for protein precipitation by adding 85 μL of acetonitrile+5-CT to 20 μL of samples. LC-HRMS analysis for PK studies were performed on a maXis Q-TOF mass spectrometer (Bruker, Bremen, Germany) coupled to an U3000 RSLC UHPLC system (Dionex, Germering, Germany). Separation was obtained using an Acquity UPLC BEH C18 column (2.1×50 mm; 1.7 μm) (Waters, Saint-Quentin-en-Yvelines, France) thermostated at 40° C. with a gradient of water (solvent A) and acetonitrile (solvent B), both acidified with 0.1% formic acid at 500 μL/min. […] The samples were randomized prior analysis; 1.25 μL were injected for plasma and 8 μL for brains. […] Area were integrated from extracted ion chromatograms (EIC) of [M+H]+ ions using QuantAnalysis 4.4 software (Bruker) with a tolerance of ±0.005 u.\nThe pharmacokinetics profile of both compounds were evaluated. The inventors used liquid chromatography tandem mass spectrometry (UPLC-MS/MS) method to perform PK study and measure Serodolin vs E55888 levels in vivo."}, "[4]": {"test_system": "mice", "assay": "Tail immersion test (50° C.)", "format": "in vivo", "conditions": "5-HT7R KO mice, subcutaneous", "description": "(A) Experimental protocol summary used. (B) Mice were subcutaneously injected with two different doses of the 5-HT7 receptor agonist Serodolin, 1 mg/kg or 5 mg/kg and 10 min later their tail extremity was immersed in water heated to 50 degrees. […] The effect of injections (Serodolin or E55888) was evaluated at TO, 30 min and 60 min corresponding to 10, 40 and 70 min after compound injections. […] Their tail extremity was immersed in water heated to 50 degrees at TO (E) or 30 min later (F) corresponding to 10 and 40 min after agonist injections. […] Statistical analysis was done using Tukey's multiple comparison test.\nTail immersion test. Nociception was assessed with the tail immersion test, 10 min and 40 min after E55888 (5 mg/kg) or Serodolin (5 mg/kg) tail subcutaneous injections, in the water heated to 50° C. Vehicle (20% DMSO, 5% Tween 80 diluted in PBS solution) was used as a control group. These different groups were intraperitoneally injected (+) or not (−) with the 5-HT7R antagonist SB269960 (5 mg/kg) 10 min before the ligand injection. The tail withdrawal latency (s) was measured for each animal."}, "[5]": {"test_system": "C57BL/6 mice", "assay": "Spared Nerve Injury (SNI) neuropathic pain model, Von Frey", "conditions": "s.c.", "protocol": "Pregabalin, vehicle or compounds solutions are subcutaneously administrated for 8 consecutive days. • (A) Mechanical response threshold after the first administration (D+10). […] Positive control animals were treated with Pregabalin (5 mg/kg, sc). Statistical differences are indicated compared to vehicle group (Two-way RM ANOVA followed by Bonferroni post-hoc test: ***p<0.001, ** p<0.01, * p<0.05). […] Positive control animals were treated with Pregabalin (5 mg/kg, sc). Statistical differences are indicated compared to vehicle group (Two-way RM ANOVA followed by Bonferroni post-hoc test: ***p<0.001, ** p<0.01, * p<0.05). […] (Two-way RM ANOVA followed by Bonferroni post-hoc test: ***p<0.001, ** p<0.01, * p<0.05)\nMOA51 and Serodolin (AIC01) compounds were diluted in NDT solution (NaCl 0.9%—DMSO 20%—Tween80 5%). […] AIC01 was resuspended at 0.5 mg/mL and administrated at a ratio of 100 μl per 10 g (dose of 5 mg/kg).\nExperiment starts with 8 weeks old male C57B16J mice (from Charles River). Study was performed on 40 mice (2 mice were excluded during the study due to health guidelines) divided in 4 randomized groups. • Group A: s.c. injection at 5 mg/kg of pregabalin. • Group B: s.c. injection at 0.5 mg/kg of MOA51. • Group C: s.c. injection at 5 mg/kg of Serodolin (AIC01). • Group D: s.c. injection of NDT solution (referred as Vehicle hereafter).\nCompounds solutions, pregabalin and vehicle were subcutaneously administrated (100 μl/10 g) for 9 consecutive days, starting 10 days after surgery. Ligature and transection of the common peroneal and tibial distal branches of the sciatic nerve was made leaving the sural branch intact. 7 days post-surgery, a decrease of threshold response to Von Frey filaments of ipsilateral hind-paw was observed corresponding to neuropathic pain apparition (mechanical allodynia). Mechanical threshold response of mice were measured with calibrated Von Frey filaments using the up/down method. Experimenter was blind to mice treatment. Measures are performed as follow: one baseline measure before surgery, one measure at D+10, D+12, D+14, D+16 and D+18 before drug's administration, and 1 h, 2 h post-drug administration. A supplementary measure 4 h post-drug administration was performed at D+10 and D+18.\nTwo-way RM ANOVA (followed by Bonferroni post-hoc test) was used to analysed time course response at D+10 and D+18. Area under the curve was determined with the 1 h and 2 h post-drug administration measures to investigated tolerance of repeated administration of compounds"}, "[6]": {"test_system": "HEK-293 mock cells", "assay": "Control in mock-transfected HEK-293 cells (cAMP, ERK phosphorylation)", "format": "cell-based, human", "description": "ERK phosphorylation was monitored by western blotting after treatment of cells with 10 μM of ligands at different times ranging from 2 to 60 minutes. […] The kinetics of ERK phosphorylation elicited by 5-CT, Serodolin and MOA-51 were very similar: activation was fast and transient, and reached a pick between 2 and 7 minutes after drug exposure. However, ERK phosphorylation-induced by Serodolin and MOA-51 was more protracted compared to 5-CT, the reference agonist."}, "[7]": {"test_system": "mouse", "assay": "Effect on body temperature", "format": "in vivo", "source_text": "FIG. 13: Evaluation of the effect of Serodolin on body temperature.\nFIG. 17: Evaluation of the effect of MOA51 on body temperature. Results expressed in ° C.\nThe time course of the effect of Serodolin on the body temperature has been evaluated in the mouse following intravenous administration."}, "[8]": {"test_system": "Sprague-Dawley male rats", "assay": "Formalin induced inflammatory pain model", "format": "in vivo", "conditions": "single s.c., Serodolin 10 mg/kg, MOA51 1 mg/kg, morphine", "description": "FIG. 18: Effect of a single administration of Serodolin (AIC01) or MOA51 in the formalin test in rats. Effect of a single subcutaneous administration of Serodolin (AIC01) or MOA51 in the formalin test in rats. In this test, Sprague-Dawley male rats received unilateral injection of a 2.5% formalin solution (50 μl) into the plantar aspect of the hindpaw on testing day (i.e. D0). Control group received Vehicle (20% DMSO/5% Tween 80/NaCl). Serodolin was subcutaneously (sc) administrated at 10 mg/kg and MOA51 at 1 mg/kg. Positive control animals were treated with morphine (3 mg/kg, sc). Paw licking time was measured. Results are expressed as mean±s.e.m. Percentage are expressed as decreased as compared to the vehicle-treated group and represented as figure (B). ***: p<0.001 as compared to the vehicle-treated group, Bonferroni's test after significant Two-way Repeated Measures ANOVA. NS: Non-significant.\nSprague-Dawley male rats (n=10 rats per group) received unilateral injection of a 2.5% formalin solution (50 μl) into the plantar aspect of the hindpaw on testing day (i.e. D0). Experience was separated into 4 groups of animals. Formalin animals+vehicle-treated group; […]—Formalin animals+Sponsor's Serodolin (10 mg/kg), s.c.—Formalin animals+Sponsor's MOA51 (1 mg/kg), s.c.—Formalin animals+internal validator-treated group (Morphine at 4 mg/Kg, s.c.). Single subcutaneous administration of the Vehicle and Sponsor's Compound 30 min (or other timing depending on Sponsor's design) before formalin injection on testing day (i.e. D0)/Subcutaneous administration of Morphine 30 min before formalin injection on testing day (i.e. D0). Hindpaw licking time recorded in consecutive 5 minutes periods from 0 to 5 minutes (early phase) and 17 to 27 minutes (late phase) after formalin injection.\nWe evaluated the effect of Serodolin as well as MOA51 in rats in the formalin test, an acute and tonic pain model based on the use of a chemical stimulus. Subcutaneous injection of formalin into the right hindpaw produces a biphasic painful response of increasing and decreasing intensity for about 30 minutes after the injection. […] Although not significant, Serodolin, MOA51 and morphine have an inhibitory effect (−40%, −35% and −57% respectively) during the early phase."}, "[9]": {"test_system": "mice", "assay": "Acetic acid-induced writhing test", "format": "in vivo", "description": "(§1) FIG. 9: Analgesic effect of Serodolin in the acetic acid-induced writhing test. In this test, nociception was induced by an intraperitoneally injection (ip) of 0.1 ml/10 g acid acetic solution (10 ml/kg) in peripheral origin. Serodolin at increasing dosage was administrated by oral (po), intravenous (iv) or subcutaneous (sc) route before acid acetic injection (upper panel). Positive control animals were pretreated morphine (3 mg/kg, sc) 10 minutes before acetic acid. Five minutes after i.p. injection of acetic acid the number of writhing was recorded for 10 minutes. Data mean±SEM of values obtained from a representative experiment (n=10 animals/group). ****p<0.0001 ***p<0.001 **p<0.01 *p<0.05 as compared with the control group (Vh).\nas §1, with “16:” for “9:”, “MOA51” for “Serodolin”, “i.p.injection” for “i.p. injection”, “animals/group).” for “animals/group). ****p<0.0001 ***p<0.001”, “**p<0.01” for “**p<0.01 *p<0.05”\nWrithing tests: Mice (25-35 g). Groups of mice (n=10) received by oral, subcutaneous or intravenous route Serodolin at different doses (0.1-10 mg/kg) one hour before intraperitoneally injection of 1% acetic acid in a volume of 10 ml/kg. Control group received vehicle (10 ml/kg, solution of 20% DMSO and 5% tween 80). The test was carried out 5 minutes later after acid acetic injection. The characteristic writhing responses have been observed individually and counted for 10 minutes.\nAnalgesic activity was first evaluated using the acetic acid abdominal constriction test (writhing test), a chemical model of visceral pain. We evaluated the dose-response effect of Serodolin following single oral, intravenous and subcutaneous administration of the compound one hour before injection of acetic acid.\nAnalgesic activity was evaluated using the acetic acid abdominal constriction test (writhing test), a chemical model of visceral pain. We evaluated the dose-response effect of MOA51 following single oral, intravenous and subcutaneous administration of the compound one hour before injection of acetic acid. MOA51 administered by the oral route induced statistically significant dose-dependent decreases in the number of writhings at and above the dose of 1 mg/kg. By the intravenous route, MOA51 induced dose-dependent decreases in the number of writhings at and above the dose of 0.1 mg/kg."}}, "data": [{"smiles": "Cc1nn(C)c(C)c1-c1cccc(CCN(C)C)c1", "note": "[E55888, reference compound]", "values": [{"measurement": "IC50", "setting": "[1]", "value": 2.68, "unit": "nM"}, {"measurement": "Ki", "setting": "[1]", "value": 1.88, "unit": "nM"}, {"measurement": "CFA-induced mechanical hypersensitivity, 30 minutes after administration", "setting": "[2]", "value": "reversed the CFA-induced mechanical hypersensitivity"}, {"measurement": "passage of the brain blood barrier", "setting": "[3]", "value": "ability to pass the brain blood barrier"}, {"measurement": "time of maximum of detection", "setting": "[3]; both in plasma and brain", "value": "15 to 30", "unit": "min"}, {"measurement": "maximum of detection in brain", "setting": "[3]; brain", "value": "1.4 ± 0.2", "unit": "µg/mL"}, {"measurement": "maximum of detection in plasma", "setting": "[3]; plasma", "value": "6.1 ± 0.5", "unit": "µg/mL"}, {"measurement": "time after which eliminated / undetectable", "setting": "[3]; plasma and brain", "value": 120, "unit": "min"}, {"measurement": "anti-nociceptive effect in 5-HT7R KO mice", "setting": "[4]", "value": "did not exert any anti-nociceptive effect"}]}, {"smiles": "O=C(c1ccc(F)cc1)C1CCN(Cn2c(=O)[nH]c3ccccc32)CC1", "note": "[MOA51]", "values": [{"measurement": "tolerance after repetitive administration (AUC)", "setting": "[5]; 9 consecutive days", "value": "didn't present any tolerance effect after repetitive administration"}, {"measurement": "mechanical response threshold vs vehicle", "setting": "[5]; first (D+10) and last (D+18) administration, 1 h and 2 h", "value": "significant increase in the mechanical threshold response"}, {"measurement": "ERK phosphorylation in HEK-293 mock cells", "setting": "[6]", "value": "neither Serodolin, nor MOA-51 were able to induce ERK phosphorylation"}, {"measurement": "decrease in body temperature, Emax", "setting": "[7]; 0.1 mg/kg, at 30 min, not statistically significant", "value": "−2.3", "unit": "°C"}, {"measurement": "decrease in body temperature, Emax", "setting": "[7]; 0.3 mg/kg, at 30 min", "value": "−5.4", "unit": "°C"}, {"measurement": "decrease in body temperature, Emax", "setting": "[7]; 1 mg/kg, at 180 min", "value": "−7.2", "unit": "°C"}, {"measurement": "inhibitory effect on paw licking, early phase", "setting": "[8]; 0 to 5 minutes, not significant", "value": "−35", "unit": "%"}, {"measurement": "inhibition of licking, late phase", "setting": "[8]; 17 to 27 minutes", "value": "−78", "unit": "%"}, {"measurement": "writhings at the top dose, intravenous route", "setting": "[9]; 10 mg/kg, intravenous", "value": "no further acetic acid-induced writhings were observed"}, {"measurement": "dose giving decrease in number of writhings, intravenous route", "setting": "[9]; intravenous, one hour before acetic acid", "value": "≥ 0.1", "unit": "mg/kg"}, {"measurement": "dose giving significant decrease in number of writhings, oral route", "setting": "[9]; oral, one hour before acetic acid", "value": "≥ 1", "unit": "mg/kg"}, {"measurement": "dose giving significant decrease in number of writhings, subcutaneous route", "setting": "[9]; s.c., one hour before acetic acid", "value": "≥ 1", "unit": "mg/kg"}, {"measurement": "writhings at the top dose, subcutaneous route", "setting": "[9]; top dose, subcutaneous", "value": "absence of acetic acid-induced writhings"}]}]}
